# US9980980B2, “Compounds, compositions and methods for protecting brain health in neurodegenerative disorders” (Amazentis SA, priority 2009, dated 2018)
# System: PC12 cells
# Experiment: Inhibition of Aβ-oligomer induced neuronal cell death in PC12 cells (MTT)
# Format: cell-based, Rat
# Conditions: pre-aggregated Aβ (25-35) 10 μM, 24 h; MTT cell viability
# Procedure: The fractions that were able to inhibits oligomer formation were also tested for their ability to inhibit Aβ-oligomer induced neuronal cell death using […], a well known and accepted model of neuronal cell culture.
# Beta Amyloid peptide (Aβ) 25-35 trifluoroacetate salt (ref H-1192, lot 2000718) was purchased from Bachem (Bubebdorf, Switzerland). Thiazolyl Blue Tetrazolium Bromide (MTT, ref. M2128) was purchased from Sigma-Aldrich (Saint-Quentin Fallvier, France). Albumin Bovine Fraction V (BSA, ref 160069) was purchased from MPBio (Irvine, USA).
# Cells: Rat Pheochromocytoma cells (PC12) were maintained in DMEM (4.5 g/L glucose) supplemented with 10% Horse Serum (HS), 5% Fetal Bovine Serum (FCS) and 100 U/mL penicillin and 100 μg/mL Streptomycin at 37° C. under 5% CO2.
# Preparation of Aβ (25-35): It has been reported that Aβ oligomers are more toxic to neurons than monomers. […]
# Determination of Hydro-Alcoholic Pomegranate Extracts Ability to Protect PC12 Cells Against Aβ Insult: The ability of Pomegranate extracts to protect PC12 cells from Aβ (25-35) oligomer induced toxicity was determined by measuring reduction of MTT to MTT formazan, which reflects cell viability. […] The level of MTT reduction and thus cell viability was determined by a colorimetric assay measuring the optical density at 595 nm using a microplate reader (BioTek EL808).
row,Molecule,protection of PC12 neuronal cells from the toxicity of Aβ (25-35) oligomers
1,O=C1O[C@H]2[C@@H]3OC(=O)c4cc(O)c(O)c(O)c4-c4c(O)c(O)c5oc(=O)c6c(c(O)c(O)c7oc(=O)c4c5c76)-c4c(cc(O)c(O)c4O)C(=O)OC[C@H]3OC(O)[C@@H]2OC(=O)c2cc(O)c(O)c(O)c2-c2c1cc(O)c(O)c2O (mixture of isomers) [Punicalagin],responsible for the observed activity

# Biological target: T1, Aβ(25-35) (Homo sapiens, UniProt P05067)
# T1 construct: Monomeric Aβ(25-35) purchased from Bachem Pharma; purchased Bachem Pharma
# Experiment: Screening assay for inhibition of Aβ(25-35) aggregation (Thioflavin-T fluorescence)
# Format: biochemical
# Conditions: molecule at purity above 90%; ThT fluorescence, 25° C., 0-120 minutes; read-out: IC50 for inhibiting aggregation of Aβ25-35
# Procedure: Monomeric Aβ(25-35) purchased from Bachem Pharma, was dissolved in distilled sterile water at 4° C., then sonitcated for about 1 minute. The peptide stock solution was then aliquoted and stored at −20° C. All steps were carried out at 4° C. to prevent Aβ(25-35) polymerization.
# Fractions of polyphenols were all standardized to 10 μg/mL, before being assessed and stored at −20° C. Measurement of inhibition was performed by following the kinetic of Aβ(25-35) polymerization in a reaction mixture containing 70 μL phosphate buffer, 10 μL Thioflavin-T (100 μM stock solution), 10 μL MeOH (10 mM final concentration) pH 7.2 and 10 μL of Aβ(25-35) (100 μM final concentration) adapting known in the art procedures. LeVine, H., 3rd (1993). “Thioflavine T interaction with synthetic Alzheimer's disease beta-amyloid peptides: detection of amyloid aggregation in solution.” Protein Sci. 2(3): 404-10. When Aβ(25-35) was added to the buffer solution, the solution was sonicated for an additional minute.
# To study the inhibitory activity of the fractions, the extracts were diluted to the final concentration in MeOH and 10 μL was added to the mixture at 4° C. Fluorescence spectroscopy was recorded with the excitation at 450 nm and emission at 490 nm. The polymerization kinetics was monitored at 25° C. between 0 and 120 minutes. The IC50 was calculated by using a least-square fitting technique to match the experimental data with a sigmoidal curve. The IC50 was the effective concentration dose of the compound inhibiting the formation of Aβ fibrils to 50% of the control value.
row,Molecule,IC50 [µM]
1,O=C1O[C@H]2[C@@H]3OC(=O)c4cc(O)c(O)c(O)c4-c4c(O)c(O)c5oc(=O)c6c(c(O)c(O)c7oc(=O)c4c5c76)-c4c(cc(O)c(O)c4O)C(=O)OC[C@H]3OC(O)[C@@H]2OC(=O)c2cc(O)c(O)c(O)c2-c2c1cc(O)c(O)c2O (mixture of isomers) [Punicalagin],6
2,O=C1OC[C@H]2OC(O)[C@H](O)[C@@H](O)[C@@H]2OC(=O)c2cc(O)c(O)c(O)c2-c2c(O)c(O)c3oc(=O)c4c(c(O)c(O)c5oc(=O)c2c3c54)-c2c1cc(O)c(O)c2O (mixture of isomers) [Punicalin],10
3,O=C(O[C@@H]1O[C@@H]2COC(=O)c3cc(O)c(O)c(O)c3-c3c(cc(O)c(O)c3O)C(=O)O[C@H]([C@H]1O)[C@@H]2O)c1cc(O)c(O)c(O)c1 [Corilagin],65
4,O=C1OC[C@H]2OC(O)[C@@H]3OC(=O)c4cc(O)c(O)c(O)c4-c4c(cc(O)c(O)c4O)C(=O)O[C@H]3[C@@H]2OC(=O)c2cc(O)c(O)c(O)c2-c2c1cc(O)c(O)c2O (stereo partly drawn) [Pedunculagin],11
5,Tellimagrandin,6.8
